Measured values as given in ChEMBL document CHEMBL1151464 (2008).
Converted amounts (≈) assume the structure as drawn.

Columns and labels:
Type in all cases: functional
Acinetobacter baumannii [1] = assay: Antibacterial activity against Acinetobacter baumannii isolate 889 after 24 hrs by CLSI microdilution method; conditions: isolate 889, 24 h
Pseudomonas aeruginosa [2] = assay: Antibacterial activity against Pseudomonas aeruginosa isolate 366 after 24 hrs by CLSI microdilution method; conditions: isolate 366, 24 h
Pseudomonas aeruginosa [3] = assay: Antibacterial activity against Pseudomonas aeruginosa isolate 345 after 24 hrs by CLSI microdilution method; conditions: isolate 345, 24 h
Acinetobacter baumannii [4] = assay: Antibacterial activity against Acinetobacter baumannii isolate 902 after 24 hrs by CLSI microdilution method; conditions: isolate 902, 24 h
Acinetobacter baumannii [5] = assay: Antibacterial activity against Acinetobacter baumannii isolate 925 after 24 hrs by CLSI microdilution method; conditions: isolate 925, 24 h
Acinetobacter baumannii [6] = assay: Antibacterial activity against Acinetobacter baumannii isolate 922 after 24 hrs by CLSI microdilution method; conditions: isolate 922, 24 h
Acinetobacter baumannii [7] = assay: Antibacterial activity against Acinetobacter baumannii isolate 897 after 24 hrs by CLSI microdilution method; conditions: isolate 897, 24 h
Acinetobacter baumannii [8] = assay: Antibacterial activity against Acinetobacter baumannii isolate 930 after 24 hrs by CLSI microdilution method; conditions: isolate 930, 24 h
Pseudomonas aeruginosa [9] = assay: Antibacterial activity against Pseudomonas aeruginosa isolate 322 after 24 hrs by CLSI microdilution method; conditions: isolate 322, 24 h
Acinetobacter baumannii [10] = assay: Antibacterial activity against Acinetobacter baumannii isolate 904 after 24 hrs by CLSI microdilution method; conditions: isolate 904, 24 h
Acinetobacter baumannii [11] = assay: Antibacterial activity against Acinetobacter baumannii isolate 906 after 24 hrs by CLSI microdilution method; conditions: isolate 906, 24 h
Acinetobacter baumannii [12] = assay: Antibacterial activity against Acinetobacter baumannii isolate 883 after 24 hrs by CLSI microdilution method; conditions: isolate 883, 24 h
Pseudomonas aeruginosa [13] = assay: Antibacterial activity against Pseudomonas aeruginosa isolate 367 after 24 hrs by CLSI microdilution method; conditions: isolate 367, 24 h
Acinetobacter baumannii [14] = assay: Antibacterial activity against Acinetobacter baumannii isolate 923 after 24 hrs by CLSI microdilution method; conditions: isolate 923, 24 h
Acinetobacter baumannii [15] = assay: Antibacterial activity against Acinetobacter baumannii isolate 911 after 24 hrs by CLSI microdilution method; conditions: isolate 911, 24 h
Pseudomonas aeruginosa [16] = assay: Antibacterial activity against Pseudomonas aeruginosa isolate 373 after 24 hrs by CLSI microdilution method; conditions: isolate 373, 24 h
Pseudomonas aeruginosa [17] = assay: Antibacterial activity against Pseudomonas aeruginosa isolate 335 after 24 hrs by CLSI microdilution method; conditions: isolate 335, 24 h
Acinetobacter baumannii [18] = assay: Antibacterial activity against Acinetobacter baumannii isolate 900 after 24 hrs by CLSI microdilution method; conditions: isolate 900, 24 h
Pseudomonas aeruginosa [19] = assay: Antibacterial activity against Pseudomonas aeruginosa isolate 340 after 24 hrs by CLSI microdilution method; conditions: isolate 340, 24 h
Pseudomonas aeruginosa [20] = assay: Antibacterial activity against Pseudomonas aeruginosa isolate 374 after 24 hrs by CLSI microdilution method; conditions: isolate 374, 24 h
Acinetobacter baumannii [21] = assay: Antibacterial activity against Acinetobacter baumannii isolate 899 after 24 hrs by CLSI microdilution method; conditions: isolate 899, 24 h
Pseudomonas aeruginosa [22] = assay: Antibacterial activity against Pseudomonas aeruginosa isolate 354 after 24 hrs by CLSI microdilution method; conditions: isolate 354, 24 h
Acinetobacter baumannii [23] = assay: Antibacterial activity against Acinetobacter baumannii isolate 914 after 24 hrs by CLSI microdilution method; conditions: isolate 914, 24 h
Pseudomonas aeruginosa [24] = assay: Antibacterial activity against Pseudomonas aeruginosa isolate 372 after 24 hrs by CLSI microdilution method; conditions: isolate 372, 24 h
Pseudomonas aeruginosa [25] = assay: Antibacterial activity against Pseudomonas aeruginosa isolate 349 after 24 hrs by CLSI microdilution method; conditions: isolate 349, 24 h
Acinetobacter baumannii [26] = assay: Antibacterial activity against Acinetobacter baumannii isolate 934 after 24 hrs by CLSI microdilution method; conditions: isolate 934, 24 h
Pseudomonas aeruginosa [27] = assay: Antibacterial activity against Pseudomonas aeruginosa isolate 332 after 24 hrs by CLSI microdilution method; conditions: isolate 332, 24 h
Acinetobacter baumannii [28] = assay: Antibacterial activity against Acinetobacter baumannii isolate 886 after 24 hrs by CLSI microdilution method; conditions: isolate 886, 24 h
Acinetobacter baumannii [29] = assay: Antibacterial activity against Acinetobacter baumannii isolate 918 after 24 hrs by CLSI microdilution method; conditions: isolate 918, 24 h
Acinetobacter baumannii [30] = assay: Antibacterial activity against Acinetobacter baumannii isolate 893 after 24 hrs by CLSI microdilution method; conditions: isolate 893, 24 h
Pseudomonas aeruginosa [31] = assay: Antibacterial activity against Pseudomonas aeruginosa isolate 363 after 24 hrs by CLSI microdilution method; conditions: isolate 363, 24 h
Acinetobacter baumannii [32] = assay: Antibacterial activity against Acinetobacter baumannii isolate 884 after 24 hrs by CLSI microdilution method; conditions: isolate 884, 24 h
Pseudomonas aeruginosa [33] = assay: Antibacterial activity against Pseudomonas aeruginosa isolate 341 after 24 hrs by CLSI microdilution method; conditions: isolate 341, 24 h
Pseudomonas aeruginosa [34] = assay: Antibacterial activity against Pseudomonas aeruginosa isolate 371 after 24 hrs by CLSI microdilution method; conditions: isolate 371, 24 h
Acinetobacter baumannii [35] = assay: Antibacterial activity against Acinetobacter baumannii isolate 895 after 24 hrs by CLSI microdilution method; conditions: isolate 895, 24 h
Acinetobacter baumannii [36] = assay: Antibacterial activity against Acinetobacter baumannii isolate 890 after 24 hrs by CLSI microdilution method; conditions: isolate 890, 24 h
Pseudomonas aeruginosa [37] = assay: Antibacterial activity against Pseudomonas aeruginosa isolate 339 after 24 hrs by CLSI microdilution method; conditions: isolate 339, 24 h
Pseudomonas aeruginosa [38] = assay: Antibacterial activity against Pseudomonas aeruginosa isolate 346 after 24 hrs by CLSI microdilution method; conditions: isolate 346, 24 h
Acinetobacter baumannii [39] = assay: Antibacterial activity against Acinetobacter baumannii isolate 929 after 24 hrs by CLSI microdilution method; conditions: isolate 929, 24 h
Acinetobacter baumannii [40] = assay: Antibacterial activity against Acinetobacter baumannii isolate 887 after 24 hrs by CLSI microdilution method; conditions: isolate 887, 24 h
Acinetobacter baumannii [41] = assay: Antibacterial activity against Acinetobacter baumannii isolate 898 after 24 hrs by CLSI microdilution method; conditions: isolate 898, 24 h
Pseudomonas aeruginosa [42] = assay: Antibacterial activity against Pseudomonas aeruginosa isolate 370 after 24 hrs by CLSI microdilution method; conditions: isolate 370, 24 h
Pseudomonas aeruginosa [43] = assay: Antibacterial activity against Pseudomonas aeruginosa isolate 355 after 24 hrs by CLSI microdilution method; conditions: isolate 355, 24 h
Acinetobacter baumannii [44] = assay: Antibacterial activity against Acinetobacter baumannii isolate 903 after 24 hrs by CLSI microdilution method; conditions: isolate 903, 24 h
Acinetobacter baumannii [45] = assay: Antibacterial activity against Acinetobacter baumannii isolate 907 after 24 hrs by CLSI microdilution method; conditions: isolate 907, 24 h
Acinetobacter baumannii [46] = assay: Antibacterial activity against Acinetobacter baumannii isolate 921 after 24 hrs by CLSI microdilution method; conditions: isolate 921, 24 h
Pseudomonas aeruginosa [47] = assay: Antibacterial activity against Pseudomonas aeruginosa isolate 364 after 24 hrs by CLSI microdilution method; conditions: isolate 364, 24 h
Pseudomonas aeruginosa [48] = assay: Antibacterial activity against Pseudomonas aeruginosa isolate 352 after 24 hrs by CLSI microdilution method; conditions: isolate 352, 24 h
Acinetobacter baumannii [49] = assay: Antibacterial activity against Acinetobacter baumannii isolate 892 after 24 hrs by CLSI microdilution method; conditions: isolate 892, 24 h
Pseudomonas aeruginosa [50] = assay: Antibacterial activity against Pseudomonas aeruginosa isolate 324 after 24 hrs by CLSI microdilution method; conditions: isolate 324, 24 h
Pseudomonas aeruginosa [51] = assay: Antibacterial activity against Pseudomonas aeruginosa isolate 329 after 24 hrs by CLSI microdilution method; conditions: isolate 329, 24 h
Acinetobacter baumannii [52] = assay: Antibacterial activity against Acinetobacter baumannii isolate 901 after 24 hrs by CLSI microdilution method; conditions: isolate 901, 24 h
Pseudomonas aeruginosa [53] = assay: Antibacterial activity against Pseudomonas aeruginosa isolate 375 after 24 hrs by CLSI microdilution method; conditions: isolate 375, 24 h
Acinetobacter baumannii [54] = assay: Antibacterial activity against Acinetobacter baumannii isolate 917 after 24 hrs by CLSI microdilution method; conditions: isolate 917, 24 h
Pseudomonas aeruginosa [55] = assay: Antibacterial activity against Pseudomonas aeruginosa isolate 350 after 24 hrs by CLSI microdilution method; conditions: isolate 350, 24 h
Pseudomonas aeruginosa [56] = assay: Antibacterial activity against Pseudomonas aeruginosa isolate 361 after 24 hrs by CLSI microdilution method; conditions: isolate 361, 24 h
Pseudomonas aeruginosa [57] = assay: Antibacterial activity against Pseudomonas aeruginosa isolate 362 after 24 hrs by CLSI microdilution method; conditions: isolate 362, 24 h
Acinetobacter baumannii [58] = assay: Antibacterial activity against Acinetobacter baumannii isolate 924 after 24 hrs by CLSI microdilution method; conditions: isolate 924, 24 h
Pseudomonas aeruginosa [59] = assay: Antibacterial activity against Pseudomonas aeruginosa isolate 320 after 24 hrs by CLSI microdilution method; conditions: isolate 320, 24 h
Acinetobacter baumannii [60] = assay: Antibacterial activity against Acinetobacter baumannii isolate 888 after 24 hrs by CLSI microdilution method; conditions: isolate 888, 24 h

In the case of `C[C@@H](O)[C@H]1C(=O)N2C(C(=O)O)=C(S[C@@H]3CN[C@H](C(=O)N(C)C)C3)[C@H](C)[C@H]12` [MEROPENEM], the MIC (Acinetobacter baumannii [1]) is reported as 1 µg/mL (≈ 2.61 µM), the MIC (Pseudomonas aeruginosa [2]) is reported as 0.5 µg/mL (≈ 1.3 µM) and the MIC (Pseudomonas aeruginosa [3]) is reported as 1 µg/mL (≈ 2.61 µM). For the same compound, the MIC (Acinetobacter baumannii [4]) was 1 µg/mL (≈ 2.61 µM), the MIC (Acinetobacter baumannii [5]) was 1 µg/mL (≈ 2.61 µM) and the MIC (Acinetobacter baumannii [6]) was 1 µg/mL (≈ 2.61 µM). It also gave an MIC (Acinetobacter baumannii [7]) of 1 µg/mL (≈ 2.61 µM), an MIC (Acinetobacter baumannii [8]) of 0.25 µg/mL (≈ 0.652 µM) and an MIC (Pseudomonas aeruginosa [9]) of 2 µg/mL (≈ 5.22 µM). For the same compound, the MIC (Acinetobacter baumannii [10]) was 2 µg/mL (≈ 5.22 µM), the MIC (Acinetobacter baumannii [11]) was 1 µg/mL (≈ 2.61 µM) and the MIC (Acinetobacter baumannii [12]) was 1 µg/mL (≈ 2.61 µM). For the same compound, the MIC (Pseudomonas aeruginosa [13]) was 0.25 µg/mL (≈ 0.652 µM), the MIC (Acinetobacter baumannii [14]) was 0.5 µg/mL (≈ 1.3 µM) and the MIC (Acinetobacter baumannii [15]) was 16 µg/mL (≈ 41.7 µM). It also gave an MIC (Pseudomonas aeruginosa [16]) of 2 µg/mL (≈ 5.22 µM), an MIC (Pseudomonas aeruginosa [17]) of 4 µg/mL (≈ 10.4 µM) and an MIC (Acinetobacter baumannii [18]) of 0.5 µg/mL (≈ 1.3 µM). It also gave an MIC (Pseudomonas aeruginosa [19]) of 1 µg/mL (≈ 2.61 µM), an MIC (Pseudomonas aeruginosa [20]) of 0.5 µg/mL (≈ 1.3 µM) and an MIC (Acinetobacter baumannii [21]) of 32 µg/mL (≈ 83.4 µM). For the same compound, the MIC (Pseudomonas aeruginosa [22]) was 0.12 µg/mL (≈ 0.313 µM), the MIC (Acinetobacter baumannii [23]) was 0.5 µg/mL (≈ 1.3 µM) and the MIC (Pseudomonas aeruginosa [24]) was 16 µg/mL (≈ 41.7 µM). The MIC (Pseudomonas aeruginosa [25]) was 2 µg/mL (≈ 5.22 µM), the MIC (Acinetobacter baumannii [26]) was 32 µg/mL (≈ 83.4 µM) and the MIC (Pseudomonas aeruginosa [27]) was 4 µg/mL (≈ 10.4 µM). For the same compound, the MIC (Acinetobacter baumannii [28]) was 0.5 µg/mL (≈ 1.3 µM), the MIC (Acinetobacter baumannii [29]) was 0.25 µg/mL (≈ 0.652 µM) and the MIC (Acinetobacter baumannii [30]) was 2 µg/mL (≈ 5.22 µM). The MIC (Pseudomonas aeruginosa [31]) was 1 µg/mL (≈ 2.61 µM), the MIC (Acinetobacter baumannii [32]) was 8 µg/mL (≈ 20.9 µM) and the MIC (Pseudomonas aeruginosa [33]) was 0.5 µg/mL (≈ 1.3 µM). It also gave an MIC (Pseudomonas aeruginosa [34]) of 16 µg/mL (≈ 41.7 µM), an MIC (Acinetobacter baumannii [35]) of 8 µg/mL (≈ 20.9 µM) and an MIC (Acinetobacter baumannii [36]) of 1 µg/mL (≈ 2.61 µM). It also gave an MIC (Pseudomonas aeruginosa [37]) of 0.5 µg/mL (≈ 1.3 µM), an MIC (Pseudomonas aeruginosa [38]) of 1 µg/mL (≈ 2.61 µM) and an MIC (Acinetobacter baumannii [39]) of 0.5 µg/mL (≈ 1.3 µM). For the same compound, the MIC (Acinetobacter baumannii [40]) was 1 µg/mL (≈ 2.61 µM), the MIC (Acinetobacter baumannii [41]) was 8 µg/mL (≈ 20.9 µM) and the MIC (Pseudomonas aeruginosa [42]) was 1 µg/mL (≈ 2.61 µM). It also gave an MIC (Pseudomonas aeruginosa [43]) of 0.25 µg/mL (≈ 0.652 µM), an MIC (Acinetobacter baumannii [44]) of 1 µg/mL (≈ 2.61 µM) and an MIC (Acinetobacter baumannii [45]) of 0.5 µg/mL (≈ 1.3 µM). It also gave an MIC (Acinetobacter baumannii [46]) of 1 µg/mL (≈ 2.61 µM), an MIC (Pseudomonas aeruginosa [47]) of 0.12 µg/mL (≈ 0.313 µM) and an MIC (Pseudomonas aeruginosa [48]) of 2 µg/mL (≈ 5.22 µM). The MIC (Acinetobacter baumannii [49]) was 32 µg/mL (≈ 83.4 µM), the MIC (Pseudomonas aeruginosa [50]) was 0.25 µg/mL (≈ 0.652 µM) and the MIC (Pseudomonas aeruginosa [51]) was 0.5 µg/mL (≈ 1.3 µM). The MIC (Acinetobacter baumannii [52]) was 8 µg/mL (≈ 20.9 µM), the MIC (Pseudomonas aeruginosa [53]) was 0.5 µg/mL (≈ 1.3 µM) and the MIC (Acinetobacter baumannii [54]) was 0.5 µg/mL (≈ 1.3 µM). For the same compound, the MIC (Pseudomonas aeruginosa [55]) was 2 µg/mL (≈ 5.22 µM), the MIC (Pseudomonas aeruginosa [56]) was 0.25 µg/mL (≈ 0.652 µM) and the MIC (Pseudomonas aeruginosa [57]) was 0.5 µg/mL (≈ 1.3 µM). It also gave an MIC (Acinetobacter baumannii [58]) of 0.5 µg/mL (≈ 1.3 µM), an MIC (Pseudomonas aeruginosa [59]) of 2 µg/mL (≈ 5.22 µM) and an MIC (Acinetobacter baumannii [60]) of 1 µg/mL (≈ 2.61 µM).
